{"source": "paper PMC7822816", "about": "“Halo-fluorescein for photodynamic bacteria inactivation in extremely acidic conditions” (Nature Communications, 2021)", "tested_on": "C. albicans", "assay": "Fresh food preservation (infected tomato model)", "parameters": "species or system Candida albicans", "from_the_text": "Besides fruit juices, the potential of TIF for photo-assisted fresh food preservation was also investigated with tomato as the model (pH 3.0). […] Therefore, the food additive TIF is also promising for fresh food preservation.\nTomatoes were selected as the model for photo-assisted fresh food preservation. All the tomatoes were divided into six groups, and made a wound of ~7 cm^2 by hot water. […] Afterward, the tomatoes were stored at room temperature and then subjected to repeated irradiation at day 2. The total viable counts of bacteria on the infected tomatoes were measured in day 3.", "data": [{"smiles": "O=C(O)c1ccccc1-c1c2cc(I)c(=O)c(I)c-2oc2c(I)c(O)c(I)cc12", "note": "[TIF, 2′,4′,5′,7′-tetraiodofluorescein]", "values": [{"measurement": "wound infection of tomatoes, without light", "setting": "10 μM in pH 3.0 PBS, TIF only", "result": "different magnitudes of wound infection"}, {"measurement": "colony counting of infected tomatoes", "setting": "day 3, 10 μM, pH 3.0, 520 nm LED", "result": "excellent antimicrobial ability"}]}]}
